The record followed here is US9981944B2, “GDF-8 inhibitors” (Rigel Pharmaceuticals, Inc., priority 2015, dated 2018).

Experiment [1] relates to TGF-β signaling (p-SMAD-3 Ser423/425). Description: AlphaScreen SureFire SMAD3 (p-Ser423/425) assay, TGF-β stimulated (TGF-β pSMAD (MPC-11)). The format is cell-based. In general terms: In Alpha technology, singlet oxygen from a donor bead excites a nearby acceptor bead.
Experiment [2] deals with GDF8 signaling (p-SMAD-3 Ser423/425). Description: AlphaScreen SureFire SMAD3 (p-Ser423/425) assay, GDF8 stimulated (GDF pSMAD (MPC11)). The experiment is classed as cell-based. The conditions noted are these: Mus musculus, MPC-11, inhibition of GDF8 signaling.
For the next experiment, the target named is HIS-TGFβR1 T204D (Homo sapiens (Human), UniProt P36897, T204D). Description: HTRF probe displacement assay, HIS-TGFβR1 T204D. The experiment is classed as binding. The conditions noted are these: 1 nM HIS-TGFβR1 T204D, 1 hour at room temperature, read-out: TGFBR1T204D IC50. How it is done: (§1) Compounds were dissolved at 10 mM in dimethylsulfoxide (DMSO) and evaluated at eleven concentrations. IC50 values were derived by non-linear regression analysis.
Chain of HIS-TGFβR1 T204D (P36897 34-503 T204D): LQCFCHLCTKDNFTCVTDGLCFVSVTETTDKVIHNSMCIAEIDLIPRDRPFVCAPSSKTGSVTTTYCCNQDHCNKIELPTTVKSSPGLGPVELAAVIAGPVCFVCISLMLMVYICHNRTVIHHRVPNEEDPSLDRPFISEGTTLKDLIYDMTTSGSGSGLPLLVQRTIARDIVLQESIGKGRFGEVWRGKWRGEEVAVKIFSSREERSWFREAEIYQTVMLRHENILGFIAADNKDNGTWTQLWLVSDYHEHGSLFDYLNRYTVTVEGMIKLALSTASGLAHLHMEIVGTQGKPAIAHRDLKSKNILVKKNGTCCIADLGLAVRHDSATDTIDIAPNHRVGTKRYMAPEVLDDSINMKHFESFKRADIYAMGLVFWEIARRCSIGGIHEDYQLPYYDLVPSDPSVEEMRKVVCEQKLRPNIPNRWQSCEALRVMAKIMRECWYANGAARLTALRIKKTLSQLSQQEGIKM
On the technique in general: In TR-FRET formats the signal depends on donor and acceptor labels being close together.

The target of another experiment is HIS-TGFβR2 WT (Homo sapiens (Human), UniProt P37173). Description: HTRF probe displacement assay, HIS-TGFβR2 WT. The experiment is classed as binding. The conditions noted are these: 1 nM HIS-TGFβR2 WT, 1 hour at room temperature, read-out: TGFBR2WT IC50. How it is done:
as §1

Setting [3] is: Mus musculus, MPC-11, inhibition of TGF-β signaling.

Structures can show the parent of a compound that is named as a salt.

Chain of HIS-TGFβR2 WT (P37173 23-567): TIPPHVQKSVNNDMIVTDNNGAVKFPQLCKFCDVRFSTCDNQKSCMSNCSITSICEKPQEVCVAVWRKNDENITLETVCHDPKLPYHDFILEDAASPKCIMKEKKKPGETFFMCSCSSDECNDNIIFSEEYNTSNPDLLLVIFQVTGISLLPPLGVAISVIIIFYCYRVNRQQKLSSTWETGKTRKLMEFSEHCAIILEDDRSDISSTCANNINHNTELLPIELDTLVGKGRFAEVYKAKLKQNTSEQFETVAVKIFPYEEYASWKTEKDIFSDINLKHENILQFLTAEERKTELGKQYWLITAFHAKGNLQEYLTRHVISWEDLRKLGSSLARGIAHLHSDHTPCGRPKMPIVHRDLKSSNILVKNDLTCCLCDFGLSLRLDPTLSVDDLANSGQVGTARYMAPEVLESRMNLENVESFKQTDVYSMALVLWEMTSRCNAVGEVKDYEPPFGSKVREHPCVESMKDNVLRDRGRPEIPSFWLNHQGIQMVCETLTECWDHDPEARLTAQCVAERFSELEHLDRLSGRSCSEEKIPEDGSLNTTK

As to `Cc1cccc(-c2ncccc2-c2ccc3ncnn3c2)n1` [Compound 4, 6-(6′-Methyl-[2,2′-bipyridin]-3-yl)-[1,2,4]triazolo[1,5-a]pyridine], the IC50 (commonly the midpoint of a concentration-inhibition curve) in experiment [1] (setting [3]) worked out at 501 nM; in experiment [2], 215 nM.
For `NC(=O)c1cnc2ccc(-c3cccnc3-c3ccccn3)cn12` [Compound 9, 6-([2,2′-Bipyridin]-3-yl)imidazo[1,2-a]pyridine-3-carboxamide] the same measures were 281 nM and 119 nM.
Turning to `Cc1cccc(-c2ncccc2-c2ccc3ncc(C(N)=O)n3c2)n1` [Compound 6, 6-(6′-Methyl-[2,2′-bipyridin]-3-yl)imidazo[1,2-a]pyridine-3-carboxamide], the values for the IC50 in experiment [1] (setting [3]) and in experiment [2] were 53.8 nM and 28.6 nM, respectively.
For `Nc1ncnc2ccc(-c3cccnc3-c3ccccn3)cc12` [Compound 12A, 6-([2,2′-bipyridin]-3-yl)quinazolin-4-aminium formate], the IC50 in experiment [1] (setting [3]) came to 5480 nM; in experiment [2], 1310 nM.
For `Cc1cccc(-c2ncccc2-c2ccc3ncc(C#N)n3c2)n1` [Compound 3, 6-(6′-Methyl-[2,2′-bipyridin]-3-yl)imidazo[1,2-a]pyridine-3-carbonitrile] the same measures were 1710 nM and 734 nM.
`Cc1cccc(-c2ncccc2-c2ccc3ncnc(N)c3c2)n1` [Compound 2A, 6-(6′-methyl-[2,2′-bipyridin]-3-yl)quinazolin-4-aminium 2,2,2-trifluoroacetate]: the IC50 in experiment [1] (inhibition of TGF-β signaling, 2,2,2-trifluoroacetate) came to 251 nM; in experiment [2], 129 nM.
For the compound `c1ccc(-c2ncccc2-c2ccc3ncnn3c2)nc1` [Compound 8, 6-([2,2′-Bipyridin]-3-yl)-[1,2,4]triazolo[1,5-a]pyridine], the IC50 in experiment [1] (setting [3]) turned out to be 23600 nM; in experiment [2] it was 8060 nM.
Take `Cc1cccc(-c2ncccc2-c2ccn3ncnc3c2)n1` [Compound 5, 7-(6′-Methyl-[2,2′-bipyridin]-3-yl)-[1,2,4]triazolo[1,5-a]pyridine]: the IC50 came out at 1070 nM in experiment [1] (setting [3]) and 280 nM in experiment [2].
For `Cc1cccc(-c2ncccc2-c2ccnc3ccccc23)n1` [Compound 1, 4-(6′-Methyl-[2,2′-bipyridin]-3-yl)quinolone] the same measures were 10600 nM and 19700 nM.
`Nc1ncnc2ccc(-c3cccnc3-c3cccc(F)n3)cc12` [Compound 11A, 6-(6′-fluoro-[2,2′-bipyridin]-3-yl)quinazolin-4-aminium 2,2,2-trifluoroacetate]: the IC50 is 1170 nM in experiment [1] (setting [3]) and 229 nM in experiment [2].
Take `Cc1nc(-c2ncccc2-c2ccn3ncc(C(=O)NC4CC4)c3n2)ccc1F` [Compound 132, N-cyclopropyl-5-(5′-fluoro-6′-methyl-[2,2′-bipyridin]-3-yl)pyrazolo[1,5-a]pyrimidine-3-carboxamide]: the IC50 is 36 nM at HIS-TGFβR1 T204D and > 15000 nM at HIS-TGFβR2 WT.
For `Cc1cccc(-c2nccc(C(F)F)c2-c2ccc3ncc(C#N)n3c2)n1` [Compound 93, 6-(4-(difluoromethyl)-6′-methyl-[2,2′-bipyridin]-3-yl)imidazo[1,2-a]pyridine-3-carbonitrile] the same measures were 15000 nM and > 15000 nM.
The corresponding values for `NC(=O)c1cnc2ccc(-c3cccnc3-c3cccc(C(F)F)n3)cn12` [Compound 29, 6-(6′-(difluoromethyl)-[2,2′-bipyridin]-3-yl)imidazo[1,2-a]pyridine-3-carboxamide] are 1 nM and > 15000 nM.
The corresponding values for `Cc1nc(-c2ncccc2-c2ccc3ncc(C(N)=O)n3n2)ccc1F` [Compound 43, 6-(5′-fluoro-6′-methyl-[2,2′-bipyridin]-3-yl)imidazo[1,2-b]pyridazine-3-carboxamide] are 17 nM and > 15000 nM.
Regarding `CC(=O)c1cccc(-c2ncccc2-c2ccc3ncc(C#N)n3c2)n1` [Compound 40, 6-(6′-acetyl-[2,2′-bipyridin]-3-yl)imidazo[1,2-a]pyridine-3-carbonitrile], the values for the IC50 at HIS-TGFβR1 T204D and on HIS-TGFβR2 WT were 821 nM and > 15000 nM, respectively.
For `NC(=O)c1cnc2ccc(-c3cc(F)cnc3-c3cccc(C(F)F)n3)cn12` [Compound 84, 6-(6′-(difluoromethyl)-5-fluoro-[2,2′-bipyridin]-3-yl)imidazo[1,2-a]pyridine-3-carboxamide] the same measures were 1 nM and > 15000 nM.
Consider `N#Cc1cnc2ccc(-c3cccnc3-c3ccccn3)cn12` [Compound 7, 6-([2,2′-Bipyridin]-3-yl)imidazo[1,2-a]pyridine-3-carbonitrile], for which inhibition in experiment [2] was half-maximal at 8510 nM (IC50).
For `N#Cc1cnc2ccc(-c3cccnc3-c3cccc(OCc4ccccc4)n3)cn12` [Compound 38, 6-(6′-(benzyloxy)-[2,2′-bipyridin]-3-yl)imidazo[1,2-a]pyridine-3-carbonitrile], the half-inhibitory concentration (IC50) was 1920 nM on HIS-TGFβR1 T204D and > 15000 nM at HIS-TGFβR2 WT.
The corresponding values for `CC(C)c1cccc(-c2ncccc2-c2ccc3ncnc(N)c3c2)n1` [Compound 108, 6-(6′-isopropyl-[2,2′-bipyridin]-3-yl)quinazolin-4-amine] are 172 nM and > 15000 nM.
For `N#Cc1cnc2ccc(-c3cccnc3-c3cccc(C(F)F)n3)nn12` [Compound 49, 6-(6′-(difluoromethyl)-[2,2′-bipyridin]-3-yl)imidazo[1,2-b]pyridazine-3-carbonitrile], the IC50 at HIS-TGFβR1 T204D was 61 nM; on HIS-TGFβR2 WT, > 15000 nM.
Take `Cc1cccc(-c2ncccc2-c2ccc3ncc(C(N)=O)n3n2)n1` [Compound 58, 6-(6′-methyl-[2,2′-bipyridin]-3-yl)imidazo[1,2-b]pyridazine-3-carboxamide]: the IC50 at HIS-TGFβR1 T204D was 19 nM; on HIS-TGFβR2 WT it was > 15000 nM.
In turn, `Cc1cccc(-c2ncccc2-c2ccc3ncnc(N)c3c2)n1` [Compound 2B, 6-(6′-methyl-[2,2′-bipyridin]-3-yl)quinazolin-4-aminium formate] displayed an IC50 in experiment [1] (inhibition of TGF-β signaling, formate) of 112 nM.
For `CC(=O)Nc1ccnc(-c2cccc(C)n2)c1-c1ccc2ncc(C(N)=O)n2c1` [Compound 102, 6-(4-acetamido-6′-methyl-[2,2′-bipyridin]-3-yl)imidazo[1,2-a]pyridine-3-carboxamide], the IC50 is 716 nM at HIS-TGFβR1 T204D and > 15000 nM on HIS-TGFβR2 WT.
For `CC(=O)Nc1cnc(-c2cccc(C)n2)c(-c2ccc3ncc(C#N)n3c2)c1` [Compound 96, N-(3-(3-cyanoimidazo[1,2-a]pyridin-6-yl)-6′-methyl-[2,2′-bipyridin]-5-yl)acetamide] the same measures were 43 nM and > 15000 nM.
For `Fc1ccc(-c2ncccc2-c2ccc3nccn3c2)nc1C(F)F` [Compound 48, 6-(6′-(difluoromethyl)-5′-fluoro-[2,2′-bipyridin]-3-yl)imidazo[1,2-a]pyridine] the same measures were 26 nM and > 15000 nM.
The corresponding values for `COC(=O)c1ccnc(-c2cccc(C)n2)c1-c1ccc2ncc(C#N)n2c1` [Compound 91, methyl 3-(3-cyanoimidazo[1,2-a]pyridin-6-yl)-6′-methyl-[2,2′-bipyridine]-4-carboxylate] are 652 nM and > 15000 nM.
For `Cc1ccc(-c2ccc3ncc(C(N)=O)n3c2)c(-c2cccc(C(F)F)n2)n1` [Compound 88, 6-(6′-(difluoromethyl)-6-methyl-[2,2′-bipyridin]-3-yl)imidazo[1,2-a]pyridine-3-carboxamide], the IC50 was 13 nM on HIS-TGFβR1 T204D and > 15000 nM at HIS-TGFβR2 WT.
The corresponding values for `Cc1cccc(-c2ncccc2-c2ccc3nccn3c2)n1` [Compound 47, 6-(6′-methyl-[2,2′-bipyridin]-3-yl)imidazo[1,2-a]pyridine] are 3 nM and > 15000 nM.
For `Cc1nc(-c2ncccc2-c2ccc3ncnc(N)c3c2)ccc1F` [Compound 110] the same measures were 2 nM and > 15000 nM.
With `Cc1cccc(-c2ncccc2-c2ccn3ncc(C(=O)NC4COC4)c3n2)n1` [Compound 129, 5-(6′-methyl-[2,2′-bipyridin]-3-yl)-N-(oxetan-3-yl)pyrazolo[1,5-a]pyrimidine-3-carboxamide], the IC50 is 29 nM on HIS-TGFβR1 T204D and > 15000 nM on HIS-TGFβR2 WT.
For `CC(=O)Nc1cn2cc(-c3cccnc3-c3cccc(C)n3)ccc2n1` [Compound 76, N-(6-(6′-methyl-[2,2′-bipyridin]-3-yl)imidazo[1,2-a]pyridin-2-yl)acetamide] the same measures were 1 nM and > 15000 nM.
The corresponding values for `CC(C)c1cccc(-c2ncccc2-c2ccc3ncc(C(N)=O)n3c2)n1` [Compound 32, 6-(6′-isopropyl-[2,2′-bipyridin]-3-yl)imidazo[1,2-a]pyridine-3-carboxamide] are 16 nM and > 15000 nM.
